Consider one molecule from publication PMC3215231, “Arcanolysin is a cholesterol-dependent cytolysin of the human pathogen Arcanobacterium haemolyticum” (BMC Microbiology, 2011).

In this experiment the target is PFO (perfringolysin O), His-tagged PFO (Clostridium perfringens, UniProt P0C2E9). The format is biochemical.
PFO (perfringolysin O), His-tagged PFO, sequence (P0C2E9 29-500 limits assumed): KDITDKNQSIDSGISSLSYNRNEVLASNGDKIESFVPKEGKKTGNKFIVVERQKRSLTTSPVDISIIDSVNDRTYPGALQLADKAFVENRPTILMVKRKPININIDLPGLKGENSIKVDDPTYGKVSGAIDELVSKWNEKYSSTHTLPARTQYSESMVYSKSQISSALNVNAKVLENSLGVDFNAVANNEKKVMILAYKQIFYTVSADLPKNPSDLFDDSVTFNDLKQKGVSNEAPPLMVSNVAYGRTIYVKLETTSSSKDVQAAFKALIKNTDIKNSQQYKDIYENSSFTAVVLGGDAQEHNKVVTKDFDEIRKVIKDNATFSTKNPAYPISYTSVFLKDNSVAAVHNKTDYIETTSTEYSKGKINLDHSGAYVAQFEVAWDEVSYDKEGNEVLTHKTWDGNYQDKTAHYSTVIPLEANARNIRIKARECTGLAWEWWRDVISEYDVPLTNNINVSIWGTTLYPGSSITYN

Turning to `CC(C)CCC[C@@H](C)[C@H]1CC[C@H]2[C@@H]3CC=C4C[C@@H](O)CC[C@]4(C)[C@H]3CC[C@]12C` [cholesterol], the “% activity retained at 0.5 μM cholesterol” value is given as 7.6%.
